From patent US11821109B2, “Compartmentalised combinatorial chemistry by microfluidic control” (President and Fellows of Harvard College, priority 2004, dated 2023)

What was measured:
[1] = target: T1, E. coli β-galactosidase (LacZ) (Escherichia coli, UniProt P00722); details: Huang, 1991, cited from earlier work
[2] = target: T1, E. coli β-galactosidase (LacZ); assay: LacZ inhibition assay in microfluidic droplets with fluorogenic substrate FMG; format: biochemical
Protocol: In the enzyme inhibition assay, the rate of catalysis is determined by using a non-fluorescent substrate for LacZ, fluorescein mono-β-D-galactoside (FMG), and measuring the appearance of the fluorescent product, fluorescein (excitation […], emission 514 nm). All components of the LacZ inhibition assay are dissolved in assay buffer (10 mM MgCl2, 50 mM NaCl, 1 mM DTT, 100 μg/ml BSA, 10
Leading into each droplet forming module (FIG. 15) are two TEFLON® tubes leading from syringe pumps. The channels leading from each tube merge to create a single flow before entering the droplet forming module. The two syringes feeding into the first droplet forming module contain, (a) 50 μM PETG in assay buffer, and (b), assay buffer. The two syringes feeding into the second droplet forming module contain, (c) 100 nM LacZ in assay buffer, and (d), assay buffer. The two syringes feeding into the third droplet forming module contain, (e) 5 mM FMG in assay buffer, and (f), assay buffer. The final concentration of each component in each droplet is independently controllable by adjusting relative flow rates of each component and buffer solution while maintaining a constant combined flow rate from both syringes.
The first droplet fusion mixes the inhibitor (PETG) with the enzyme (LacZ). After the combined droplet has spent two minutes in a delay line it is fused with a third droplet containing the fluorogenic enzyme substrate (FMG). Finally, after all the components are mixed the reaction is observed by measuring fluorescence of individual droplets or by integrating fluorescent light from droplets with the same concentration of each component during 10-second exposure time at multiple points in the second 10 min long delay line. Each fluorescence intensity value at different positions is proportional to the amount of product at different reaction times. Rate of product formation is linear during initial reaction time and initial rate (v) can be determined from linear fitting. […]

[3] = Compartmentalisation of small molecules in water-in-fluorocarbon emulsions (exchange between microdroplets); format: physicochemical; details: water-in-perfluorooctyl bromide emulsion; 24 hours after mixing
Protocol: Water-in-fluorocarbon emulsions containing 95% (v/v) perfluorooctyl bromide, 5% (v/v) phosphate buffered saline containing the molecule of interest in solution, and 2% (w/v) C8F17C11H22OP(O)[N(CH2CH2)2O]2 (F8H1 IDMP) as surfactant were formed essentially as (Sadtler et al., 1996) by extrusion (15 times) through 14 μm filters (Osmonics) or by homogenising for 5 min at 25,000 r.p.m. using an Ultra-Turrax T8 Homogenizer (DCA) with a 5 mm dispersing tool. Emulsions were made containing a series of small fluorescent molecules dissolved in the aqueous phase at concentrations from […] to 2 mM. These molecules, including calcein, texas red, fluorescein, coumarin 102, 7-hydroxycoumarm-3-carboxylic acid and 7-diethylamino-4-methyl coumarin (coumarin 1), had molecular weights from 203 to 625 Da and Log P values—calculated using SRC's Log Kow/KowWin Program (Meylan and Howard, 1995)—ranging from −0.49 to 4.09. […]
Compartmentalisation of small molecules in a water-in-fluorocarbon emulsions made using microfluidic systems. […] These molecules, including calcein, texas red, fluorescein, coumarin 102, 7-hydroxycoumarin-3-carboxylic acid and 7-diethylamino-4-methyl coumarin (coumarin 1), had molecular weights from 203 to 625 Da and Log P values—calculated using SRC's Log Kow/KowWin Program (Meylan and Howard, 1995)—ranging from −0.49 to 4.09. […]

[4] = target: T2, human recombinant PTP1B, residues 1-322 (Homo sapiens, UniProt P18031); assay: Screening for PTP1B inhibitors in microcapsules in a microfluidic system, fluorogenic substrate DiFMUP; format: biochemical; details: Example 2, 100 μM compound solution, PTP1B 50 mU/ml
T2 construct: human recombinant PTP1B, residues 1-322; purchased Biomol Research Laboratories, Inc
T2 sequence (P18031 1-322): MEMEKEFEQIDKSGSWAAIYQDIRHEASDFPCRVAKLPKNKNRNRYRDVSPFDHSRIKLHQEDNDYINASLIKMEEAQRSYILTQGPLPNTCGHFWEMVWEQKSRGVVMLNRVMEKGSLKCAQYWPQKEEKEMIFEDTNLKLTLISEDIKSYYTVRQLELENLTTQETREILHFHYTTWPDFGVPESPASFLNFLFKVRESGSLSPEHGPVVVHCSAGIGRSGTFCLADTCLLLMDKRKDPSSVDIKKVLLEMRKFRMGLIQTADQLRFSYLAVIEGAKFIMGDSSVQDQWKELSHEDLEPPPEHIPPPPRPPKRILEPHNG
Protocol: All water-soluble reagents are dissolved in (25 mM HEPES, pH 7.4, 125 mM NaCl, 1 mM EDTA), a buffer compatible with PTP1B activity. […] Each microcapsule containing target enzyme is fused with a microcapsule containing compound 2 or a microcapsule containing hydrocinnamic acid. Microcapsules containing either compound 2 or hydrocinnamic acid can be formed by switching between injection with syringes containing compound 2 and hydrocinnamic acid.
After microcapsule fusion the contents are rapidly mixed. After this point the microcapsules are run for up to 1 min through a 60 cm long microchannel (to allow inhibitor binding). This microchannel is then merged with a second microchannel containing aqueous microcapsules containing the fluorogenic PTP1B substrate 6,8-difluoro-4-methylumbelliferyl phosphate (DiFMUP) (Molecular Probes) in 25 mM HEPES, pH 7.4, 125 mM NaCl, 1 mM EDTA and the microcapsules fused pairwise. […] Fluorescence of the microcapsules due to production of DiFMU (excitation/emmission maxima 358/452 nm; blue fluorescence) is measured. […]
The 96 mixtures are distributed into 96 wells of a microtitre plate. […] Inhibitors reduce the amount of non-fluorescent substrate (DiFMUP) converted to the dephosphorylated product (DiFMU; excitation/emmission maxima 358/452 nm; blue fluorescence). Microcapsule fluorescence is then analysed.

PTP1B = target: T3, PTP1B (Homo sapiens, UniProt P18031); details: cited from earlier work
T3 sequence (P18031 1-435): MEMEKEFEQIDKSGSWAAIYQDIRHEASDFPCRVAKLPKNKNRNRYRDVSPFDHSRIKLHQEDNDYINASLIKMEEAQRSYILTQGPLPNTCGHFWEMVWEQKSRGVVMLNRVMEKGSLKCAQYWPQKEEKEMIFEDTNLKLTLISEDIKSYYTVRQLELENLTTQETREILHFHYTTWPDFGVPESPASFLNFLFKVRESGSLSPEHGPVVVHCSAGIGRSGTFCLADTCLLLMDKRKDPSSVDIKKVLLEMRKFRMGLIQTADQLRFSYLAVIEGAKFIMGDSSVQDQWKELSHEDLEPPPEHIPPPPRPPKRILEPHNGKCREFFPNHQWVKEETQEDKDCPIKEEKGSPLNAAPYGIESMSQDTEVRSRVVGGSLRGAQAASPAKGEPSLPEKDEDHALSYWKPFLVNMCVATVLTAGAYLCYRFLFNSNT

[5] = 30 nM LacZ, 0 to 13 μM PETG, 10 to 700 μM FMG

T1 sequence (P00722 2-1024): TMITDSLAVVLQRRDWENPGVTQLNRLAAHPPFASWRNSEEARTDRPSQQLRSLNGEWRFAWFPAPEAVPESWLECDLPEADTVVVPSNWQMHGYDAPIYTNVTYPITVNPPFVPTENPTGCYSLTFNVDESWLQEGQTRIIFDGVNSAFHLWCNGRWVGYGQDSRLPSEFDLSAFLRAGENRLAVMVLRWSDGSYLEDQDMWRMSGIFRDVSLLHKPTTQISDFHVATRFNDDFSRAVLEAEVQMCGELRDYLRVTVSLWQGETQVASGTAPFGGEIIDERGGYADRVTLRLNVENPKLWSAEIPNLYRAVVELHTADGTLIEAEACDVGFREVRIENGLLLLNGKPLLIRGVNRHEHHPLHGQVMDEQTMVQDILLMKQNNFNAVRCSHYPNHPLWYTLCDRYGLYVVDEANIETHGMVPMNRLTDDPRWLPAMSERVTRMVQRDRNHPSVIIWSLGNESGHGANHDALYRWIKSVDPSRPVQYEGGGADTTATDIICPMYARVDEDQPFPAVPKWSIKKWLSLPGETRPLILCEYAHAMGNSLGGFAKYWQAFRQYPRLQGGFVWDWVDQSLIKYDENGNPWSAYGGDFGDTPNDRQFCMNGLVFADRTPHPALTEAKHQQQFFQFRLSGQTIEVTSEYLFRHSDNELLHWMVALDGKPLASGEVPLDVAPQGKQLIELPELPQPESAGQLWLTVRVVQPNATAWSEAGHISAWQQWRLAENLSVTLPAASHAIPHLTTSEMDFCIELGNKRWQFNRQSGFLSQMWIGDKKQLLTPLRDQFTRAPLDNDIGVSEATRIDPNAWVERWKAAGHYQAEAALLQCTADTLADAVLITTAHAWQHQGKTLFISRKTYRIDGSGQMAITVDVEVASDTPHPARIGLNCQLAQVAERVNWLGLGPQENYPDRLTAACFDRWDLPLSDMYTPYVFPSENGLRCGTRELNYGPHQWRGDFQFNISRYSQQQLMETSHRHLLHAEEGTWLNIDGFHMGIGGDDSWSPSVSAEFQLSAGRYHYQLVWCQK

O=C1OC2(c3ccc(O)cc3Oc3cc(O[C@@H]4O[C@H](CO)[C@H](O)[C@H](O)[C@H]4O)ccc32)c2ccccc21 (stereo partly drawn) [FMG, fluorescein mono-β-D-galactoside]
XM of FMG for LacZ, previously published value [1]: 118 µM | XM of FMG for LacZ as determined [2, 5]: within 20% of the previously published value

OCC1OC(SCCc2ccccc2)C(O)C(O)C1O [PETG, phenylethyl β-D-thiogalactopyranoside]
Ki ([1]; read-out: Ki of PETG for LacZ, previously published value): 980 nM | Ki of PETG for LacZ as determined [2, 5]: within the range of the previously published value | Mode of inhibition ([2]; Lineweaver-Burk plot): competitive

O=C(O)CN(CC(=O)O)Cc1cc2c(cc1O)Oc1cc(O)c(CN(CC(=O)O)CC(=O)O)cc1C21OC(=O)c2ccccc21 [calcein]
Exchange between microdroplets/compartments [3]: No exchange

O=C(O)CCc1ccccc1 [hydrocinnamic acid]
Fluorescence of the microcapsules due to production of DiFMU [4]: exhibiting blue fluorescence | PTP1B inhibitor or not (statement) (PTP1B): not a PTP1B inhibitor

texas red
Exchange between microdroplets/compartments [3]: No exchange
